Patent publication US20230085307A1, “PYRIDAZINONE COMPOUND AND HERBICIDE” (NISSAN CHEMICAL CORPORATION, priority 2019, published 2023)

Tests used:
[1] = tested on: barnyard grass; experiment: Test Example 3: herbicidal effect by foliage application, Wagner pot (Table 18, symbol H); type: in vivo, barnyard grass (Echinochloa crus-galli); conditions: 320 g/ha
Method in brief: (§1)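 Plants were sown in alluvial soil held under 0.1–0.5 cm standing water and grown 14 days in a greenhouse at 25–30 °C. An emulsifiable formulation, water-diluted to the set dose, was then sprayed onto the foliage, and effects were scored three weeks later using previously defined criteria.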

[2] = tested on: wild oat; experiment: Test Example 4: herbicidal effect by soil treatment (Table 19, symbol I); type: in vivo, wild oat (Avena fatua); conditions: amount of applied herbicide 320 g/ha
Method in brief: (§2)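 Soil-surface application: an emulsion agent diluted with water to the predetermined dose is sprayed uniformly over seeds lying under roughly 1.5 cm of sterilized diluvial soil. Boxes stay in a greenhouse at 25° C. to 30° C. Three weeks later, each species is graded on previously defined criteria.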

[3] = tested on: lambsquarters; experiment: Test Example 5: herbicidal effect by foliage application, plastic box (Table 20, symbol O); type: in vivo, lambsquarters (Chenopodium album); conditions: foliage application, 320 g/ha, three weeks after application
Method in brief: (§3)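 Sow seeds spot-wise in sterilized diluvial soil; cover with ~1.5 cm soil. Grow 14 days in greenhouse, 25° C. to 30° C. Spray foliage with emulsion diluted to predetermined amount. Rate effect after 3 weeks.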

[4] = tested on: southern crabgrass; experiment: Test Example 5: herbicidal effect by foliage application, plastic box (Table 20, symbol F); type: in vivo, southern crabgrass (Digitaria ciliaris); conditions: foliage application, 320 g/ha, three weeks after application
Method in brief: as §3

[5] = tested on: chickweed; experiment: Test Example 5: herbicidal effect by foliage application, plastic box (Table 20, symbol P); type: in vivo, common chickweed (Stellaria media); conditions: foliage application, 320 g/ha, three weeks after application
Method in brief: as §3

[6] = tested on: false cleavers; experiment: Test Example 5: herbicidal effect by foliage application, plastic box (Table 20, symbol Q); type: in vivo, false cleavers (Galium spurium); conditions: foliage application, 320 g/ha, three weeks after application
Method in brief: as §3

[7] = tested on: velvetleaf; experiment: Test Example 4: herbicidal effect by soil treatment (Table 19, symbol M); type: in vivo, velvetleaf (Abutilon theophrasti); conditions: amount of applied herbicide 320 g/ha
Method in brief: as §2

[8] = tested on: redroot pigweed; experiment: Test Example 4: herbicidal effect by soil treatment (Table 19, symbol N); type: in vivo, redroot pigweed (Amaranthus retroflexus); conditions: amount of applied herbicide 320 g/ha
Method in brief: as §2

[9] = tested on: blackgrass; experiment: Test Example 5: herbicidal effect by foliage application, plastic box (Table 20, symbol J); type: in vivo, blackgrass (Alopecurus myosuroides); conditions: foliage application, 320 g/ha, three weeks after application
Method in brief: as §3

[10] = tested on: southern crabgrass; experiment: Test Example 4: herbicidal effect by soil treatment (Table 19, symbol F); type: in vivo, southern crabgrass (Digitaria ciliaris); conditions: amount of applied herbicide 320 g/ha
Method in brief: as §2

[11] = tested on: lambsquarters; experiment: Test Example 4: herbicidal effect by soil treatment (Table 19, symbol O); type: in vivo, lambsquarters (Chenopodium album); conditions: amount of applied herbicide 320 g/ha
Method in brief: as §2

[12] = tested on: rice flat sedge; experiment: Test Example 3: herbicidal effect by foliage application, Wagner pot (Table 18, symbol E); type: in vivo, rice flat sedge (Cyperus iria); conditions: 320 g/ha
Method in brief: as §1

[13] = tested on: wild oat; experiment: Test Example 5: herbicidal effect by foliage application, plastic box (Table 20, symbol I); type: in vivo, wild oat (Avena fatua); conditions: foliage application, 320 g/ha, three weeks after application
Method in brief: as §3

[14] = tested on: green foxtail; experiment: Test Example 5: herbicidal effect by foliage application, plastic box (Table 20, symbol G); type: in vivo, green foxtail (Setaria viridis); conditions: foliage application, 320 g/ha, three weeks after application
Method in brief: as §3

[15] = tested on: windgrass; experiment: Test Example 5: herbicidal effect by foliage application, plastic box (Table 20, symbol L); type: in vivo, windgrass (Apera spica-venti); conditions: foliage application, 320 g/ha, three weeks after application
Method in brief: as §3

[16] = tested on: velvetleaf; experiment: Test Example 5: herbicidal effect by foliage application, plastic box (Table 20, symbol M); type: in vivo, velvetleaf (Abutilon theophrasti); conditions: foliage application, 320 g/ha, three weeks after application
Method in brief: as §3

[17] = tested on: barnyard grass; experiment: Test Example 5: herbicidal effect by foliage application, plastic box (Table 20, symbol H); type: in vivo, barnyard grass (Echinochloa crus-galli); conditions: foliage application, 320 g/ha, three weeks after application
Method in brief: as §3

[18] = tested on: blackgrass; experiment: Test Example 4: herbicidal effect by soil treatment (Table 19, symbol J); type: in vivo, blackgrass (Alopecurus myosuroides); conditions: amount of applied herbicide 320 g/ha
Method in brief: as §2

[19] = tested on: Chinese sprangletop; experiment: Test Example 3: herbicidal effect by foliage application, Wagner pot (Table 18, symbol D); type: in vivo, chinese sprangletop (Leptochloa chinensis); conditions: 320 g/ha
Method in brief: as §1

[20] = tested on: Italian ryegrass; experiment: Test Example 5: herbicidal effect by foliage application, plastic box (Table 20, symbol K); type: in vivo, Italian ryegrass (Lolium multiflorum); conditions: foliage application, 320 g/ha, three weeks after application
Method in brief: as §3

[21] = tested on: false cleavers; experiment: Test Example 4: herbicidal effect by soil treatment (Table 19, symbol Q); type: in vivo, false cleavers (Galium spurium); conditions: amount of applied herbicide 320 g/ha
Method in brief: as §2

[22] = tested on: green foxtail; experiment: Test Example 4: herbicidal effect by soil treatment (Table 19, symbol G); type: in vivo, green foxtail (Setaria viridis); conditions: amount of applied herbicide 320 g/ha
Method in brief: as §2

[23] = tested on: redroot pigweed; experiment: Test Example 5: herbicidal effect by foliage application, plastic box (Table 20, symbol N); type: in vivo, redroot pigweed (Amaranthus retroflexus); conditions: foliage application, 320 g/ha, three weeks after application
Method in brief: as §3

[24] = tested on: barnyard grass; experiment: Test Example 4: herbicidal effect by soil treatment (Table 19, symbol H); type: in vivo, barnyard grass (Echinochloa crus-galli); conditions: amount of applied herbicide 320 g/ha
Method in brief: as §2

[25] = tested on: chickweed; experiment: Test Example 4: herbicidal effect by soil treatment (Table 19, symbol P); type: in vivo, common chickweed (Stellaria media); conditions: amount of applied herbicide 320 g/ha
Method in brief: as §2

[26] = tested on: Italian ryegrass; experiment: Test Example 4: herbicidal effect by soil treatment (Table 19, symbol K); type: in vivo, Italian ryegrass (Lolium multiflorum); conditions: amount of applied herbicide 320 g/ha
Method in brief: as §2

[27] = tested on: persian speedwell; experiment: Test Example 5: herbicidal effect by foliage application, plastic box (Table 20, symbol R); type: in vivo, Persian speedwell (Veronica persica); conditions: foliage application, 320 g/ha, three weeks after application
Method in brief: as §3

[28] = tested on: persian speedwell; experiment: Test Example 4: herbicidal effect by soil treatment (Table 19, symbol R); type: in vivo, Persian speedwell (Veronica persica); conditions: amount of applied herbicide 320 g/ha
Method in brief: as §2

[29] = tested on: windgrass; experiment: Test Example 4: herbicidal effect by soil treatment (Table 19, symbol L); type: in vivo, windgrass (Apera spica-venti); conditions: amount of applied herbicide 320 g/ha
Method in brief: as §2

SMILES: Cc1nn(C)c(=O)c(-c2c(-c3ccccc3C(F)(F)F)sc3ccccc23)c1O [1-007]
- herbicidal effect on H (barnyard grass), rating 0-5 [1]: 5 (Herbicidal rate of 90% or more (almost completely withered))
- herbicidal effect rating, I: wild oat [2]: 3 (Herbicidal rate of 40% or more and less than 70%)
- herbicidal effect grade, O: lambsquarters [3]: 5 (Herbicidal rate of 90% or more (almost completely withered))
- herbicidal effect grade, F: southern crabgrass [4]: 3 (Herbicidal rate of 40% or more and less than 70%)
- herbicidal effect grade, P: chickweed [5]: 5 (Herbicidal rate of 90% or more (almost completely withered))
- herbicidal effect grade, Q: false cleavers [6]: 5 (Herbicidal rate of 90% or more (almost completely withered))
- herbicidal effect rating, M: velvetleaf [7]: 0 (Herbicidal rate of 5% or less (almost no effect))
- herbicidal effect rating, N: redroot pigweed [8]: 0 (Herbicidal rate of 5% or less (almost no effect))
- herbicidal effect grade, J: blackgrass [9]: 0 (Herbicidal rate of 5% or less (almost no effect))
- herbicidal effect rating, F: southern crabgrass [10]: 0 (Herbicidal rate of 5% or less (almost no effect))
- herbicidal effect rating, O: lambsquarters [11]: 0 (Herbicidal rate of 5% or less (almost no effect))
- herbicidal effect on E (rice flat sedge), rating 0-5 [12]: 4 (Herbicidal rate of 70% or more and less than 90%)
- herbicidal effect grade, I: wild oat [13]: 3 (Herbicidal rate of 40% or more and less than 70%)
- herbicidal effect grade, G: green foxtail [14]: 5 (Herbicidal rate of 90% or more (almost completely withered))
- herbicidal effect grade, L: windgrass [15]: 5 (Herbicidal rate of 90% or more (almost completely withered))
- herbicidal effect grade, M: velvetleaf [16]: 5 (Herbicidal rate of 90% or more (almost completely withered))
- herbicidal effect grade, H: barnyard grass [17]: 3 (Herbicidal rate of 40% or more and less than 70%)
- herbicidal effect rating, J: blackgrass [18]: 0 (Herbicidal rate of 5% or less (almost no effect))
- herbicidal effect on D (Chinese sprangletop), rating 0-5 [19]: 5 (Herbicidal rate of 90% or more (almost completely withered))
- herbicidal effect grade, K: Italian ryegrass [20]: 3 (Herbicidal rate of 40% or more and less than 70%)
- herbicidal effect rating, Q: false cleavers [21]: 0 (Herbicidal rate of 5% or less (almost no effect))
- herbicidal effect rating, G: green foxtail [22]: 0 (Herbicidal rate of 5% or less (almost no effect))
- herbicidal effect grade, N: redroot pigweed [23]: 5 (Herbicidal rate of 90% or more (almost completely withered))
- herbicidal effect rating, H: barnyard grass [24]: 0 (Herbicidal rate of 5% or less (almost no effect))
- herbicidal effect rating, P: chickweed [25]: 3 (Herbicidal rate of 40% or more and less than 70%)
- herbicidal effect rating, K: Italian ryegrass [26]: 0 (Herbicidal rate of 5% or less (almost no effect))
- herbicidal effect grade, R: persian speedwell [27]: 5 (Herbicidal rate of 90% or more (almost completely withered))
- herbicidal effect rating, R: persian speedwell [28]: 0 (Herbicidal rate of 5% or less (almost no effect))

SMILES: COc1ccc2c(-c3c(O)c(C)nn(C)c3=O)c(-c3ccccc3)sc2c1 [3-061]
- herbicidal effect on barnyard grass (H) [1]: 2 (Herbicidal rate of 20% or more and less than 40%)
- I: wild oat, herbicidal effect grade [2]: 2 (Herbicidal rate of 20% or more and less than 40%)
- O: lambsquarters, herbicidal effect grade [3]: 4 (Herbicidal rate of 70% or more and less than 90%)
- F: southern crabgrass, herbicidal effect grade [4]: 0 (Herbicidal rate of 5% or less (almost no effect))
- P: chickweed, herbicidal effect grade [5]: 5 (Herbicidal rate of 90% or more (almost completely withered))
- Q: false cleavers, herbicidal effect grade [6]: 4 (Herbicidal rate of 70% or more and less than 90%)
- M: velvetleaf, herbicidal effect grade [7]: 0 (Herbicidal rate of 5% or less (almost no effect))
- N: redroot pigweed, herbicidal effect grade [8]: 0 (Herbicidal rate of 5% or less (almost no effect))
- J: blackgrass, herbicidal effect grade [9]: 3 (Herbicidal rate of 40% or more and less than 70%)
- F: southern crabgrass, herbicidal effect grade [10]: 0 (Herbicidal rate of 5% or less (almost no effect))
- O: lambsquarters, herbicidal effect grade [11]: 2 (Herbicidal rate of 20% or more and less than 40%)
- herbicidal effect on rice flat sedge (E) [12]: 5 (Herbicidal rate of 90% or more (almost completely withered))
- I: wild oat, herbicidal effect grade [13]: 4 (Herbicidal rate of 70% or more and less than 90%)
- G: green foxtail, herbicidal effect grade [14]: 0 (Herbicidal rate of 5% or less (almost no effect))
- L: windgrass, herbicidal effect grade [15]: 3 (Herbicidal rate of 40% or more and less than 70%)
- M: velvetleaf, herbicidal effect grade [16]: 5 (Herbicidal rate of 90% or more (almost completely withered))
- H: barnyard grass, herbicidal effect grade [17]: 0 (Herbicidal rate of 5% or less (almost no effect))
- L: windgrass, herbicidal effect grade [29]: 0 (Herbicidal rate of 5% or less (almost no effect))
- herbicidal effect on Chinese sprangletop (D) [19]: 3 (Herbicidal rate of 40% or more and less than 70%)
- K: Italian ryegrass, herbicidal effect grade [20]: 3 (Herbicidal rate of 40% or more and less than 70%)
- Q: false cleavers, herbicidal effect grade [21]: 2 (Herbicidal rate of 20% or more and less than 40%)
- G: green foxtail, herbicidal effect grade [22]: 4 (Herbicidal rate of 70% or more and less than 90%)
- N: redroot pigweed, herbicidal effect grade [23]: 4 (Herbicidal rate of 70% or more and less than 90%)
- H: barnyard grass, herbicidal effect grade [24]: 3 (Herbicidal rate of 40% or more and less than 70%)
- P: chickweed, herbicidal effect grade [25]: 3 (Herbicidal rate of 40% or more and less than 70%)
- K: Italian ryegrass, herbicidal effect grade [26]: 0 (Herbicidal rate of 5% or less (almost no effect))
- R: persian speedwell, herbicidal effect grade [27]: 5 (Herbicidal rate of 90% or more (almost completely withered))
- R: persian speedwell, herbicidal effect grade [28]: 4 (Herbicidal rate of 70% or more and less than 90%)
